Target: human Factor IXa (Homo sapiens (Human), UniProt P00740)
Experiment: Factor IXa enzyme assay (SPECTROFLUOR FIXa fluorogenic substrate)
Assay type: biochemical
Conditions: human Factor IXa 2.0 μg/ml, SPECTROFLUOR FIXa 100 μM, 60 minutes at room temperature, pH 8.0
Description: Inhibitory activity against Factor IXa was tested using the substrate SPECTROFLUOR FIXa (American Diagnostica Inc.; 500 West Avenue, Stamford, Conn. 06902 USA; Pr. No. 299F) and human Factor IXa (American Diagnostica Inc.; Pr. No. 449b). Test substances dissolved in buffer A (50 mM α,α,α-tris(hydroxymethyl)methylamine (Tris), 100 mM NaCl, 5 mM CaCl2, 15% (v/v) ethylene glycol, pH 8.0) were mixed with Factor IXa (2.0 μg/ml final concentration). The enzyme reaction was started by addition of SPECTROFLUOR FIXa (100 μM final concentration). After incubation for 60 minutes at room temperature, the reaction was stopped by the addition of 20% (v/v) acetic acid solution, and then fluorescence value measured (Excitation Wavelength: 355 nm, Emission Wavelength; 460 nm) in a microtiter plate reader (ARVO 1420 Multilabel Counter; PerkinElmer).
IC50 was calculated from a dilution series of the test substance with the aid of the software, Symix Assay Explorer (Symyx Technologies, Inc.).

Sequence of human Factor IXa (P00740 227-461): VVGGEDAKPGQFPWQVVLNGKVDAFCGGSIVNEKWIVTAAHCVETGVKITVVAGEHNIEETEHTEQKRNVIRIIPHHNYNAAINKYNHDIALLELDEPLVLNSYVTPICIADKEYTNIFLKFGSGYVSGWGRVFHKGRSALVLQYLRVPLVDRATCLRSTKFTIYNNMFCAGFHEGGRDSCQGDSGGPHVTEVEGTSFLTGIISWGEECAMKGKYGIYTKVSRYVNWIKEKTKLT
Sequence of human Factor IXa (P00740 47-191 partner): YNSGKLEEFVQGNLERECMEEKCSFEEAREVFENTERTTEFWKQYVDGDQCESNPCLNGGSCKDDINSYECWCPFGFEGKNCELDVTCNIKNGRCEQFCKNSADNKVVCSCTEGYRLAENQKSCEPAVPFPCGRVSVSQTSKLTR

| IC50 | SMILES |
| --- | --- |
| 0.054 µM | CC(C)(C)c1ccc(-n2cccc(C(O)C(=O)Nc3ccc4c(N)nccc4c3)c2=O)cc1 (racemic) [Example 6, (±)-N-(1-aminoisoquinolin-6-yl)-2-(1-(4-tert-butylphenyl)-2-oxo-1,2-dihydropyridin-3-yl)-2-hydroxyacetamide] |
| 1 µM | CC(C)(C)c1ccc(-n2cccc(C(O)C(=O)Nc3ccc4c(N)noc4c3)c2=O)cc1 (racemic) [Example 5, (±)-N-(3-aminobenzo[d]isoxazol-6-yl)-2-(1-(4-tert-butylphenyl)-2-oxo-1,2-dihydropyridin-3-yl)-2-hydroxyacetamide] |
